Measurements reported in patent US20120204273A1, “COMPOSITIONS RELATING TO A PHOSPHOPROTEIN AND METHODS OF USE” (SANFORD-BURNHAM MEDICAL RESEARCH INSTITUTE, priority 2010, published 2012).

System: 3T3-L1 adipocytes
Test: myc-GLUT4-GFP translocation to the cell surface
Format: cell-based, mouse
Conditions: insulin 1 nM, 20 min
Procedure: FIG. 2, panels A-C show knockdown of CDP138 in 3T3-L1 adipocytes inhibits insulin-stimulated glucose transport (A) and myc-GLUT4-GFP translocation (B), but not endogenous GLUT4 movement to the periphery detected in TIRF zone (C). (A): Differentiated adipocytes at day 5 were transfected with siRNAs against mouse 5730419I09Rik or the scrambled siRNA (Scr) as described earlier (Jiang et al., 2003) for 60 hrs, then serum starved overnight. Cells were then treated with or without insulin (1 nM and 100 nM) for 30 min for the glucose uptake assay, or 15 min for immunoblotting of CDP138, pAkt, Akt and β-actin. Glucose transport data are presented as mean±SD of 4 independent experiments. *P<0.05 vs Scr Insulin (1 nM) group; **P<0.01 vs Scr Insulin (100 nM) group. (B): Day 5 adipocytes were transfected with siRNAs and myc-GLUT4-GFP for 60 hrs and then serum starved overnight. Cells were then treated with insulin (1 nM) for 20 min. Cell surface Myc-GLUT4-GFP was detected with anti-myc monoclonal Ab (9E10) and Alexa Fluor 568-labeled goat anti-mouse IgG in non-permeablized cells. The Myc signal and GFP signal were quantified as previously described (Jiang et al., 2002). Data presented are representative microscopic images and mean±SD of about 160 GFP-positive cells in each group from three independent experiments. **P<0.01 vs Scr Insulin (1 nM) group. […] GLUT4 was detected with a goat anti-GLUT4 Ab and Alexa Fluor 488-conjugated donkey anti-goat Ab in permeabilized cells. Top and middle panels show 100 nm TIRF zone and representative GLUT4 TIRFM images, respectively. Data are mean±SD of 3 independent experiments. **P<0.01 vs Scr Insulin groups.
GLUT4 translocation detection with wide field fluorescence and TIRF microscopy: Both wide field and TIRF microscopy were used to detect myc-GLUT4-GFP translocation to the cell surface as previously described (Jiang et al., 2002) and herein.
To test the effect of RNAi-induced gene specific knockdown of CDP138 or overexpression of CDP138 mutants on GLUT4 translocation, siRNAs or CDP138 constructs were transfected into adipocytes together with myc-GLUT4-GFP by electroporation as previously described (Jiang et al, 2003). […] Cells were washed with cold PBS, fixed with 4% formaldehyde and immunostained. Briefly, for siRNA study, the cell surface Myc-GLUT4-GFP was visualized with mouse anti-Myc Ab (9E10) and AlexaFluoro568-labeled goat anti-mouse secondary Ab (Invitrogen) in PBS containing 1% FBS. After washing, the coverslip were mounted with Prolong antifade reagent (Invitrogen, Eugene Oreg.). Fluorescence microscopy was carried as described below. Then, images were acquired with wide field microscopy as described below. For the study with overexpressed HAtagged CDP138 constructs, the cell surface Myc-GLUT4-GFP was visualized with rabbit anti-Myc Ab (Cell signaling, Inc) and AlexaFluoro568-labeled goat anti-rabbit secondary Ab (InVitrogen) in PBS containing 1% FBS. Cells were further permeabilized with PSB containing 0.5% Tween-20, and HA-tagged protein was detected with a mouse anti-HA epitope primary Ab followed by AlexaFluoro-350-labelled goat anti-mouse IgG. Insulin-induced myc-GLUT4 accumulation (AlexaFluoro-568 signal) within the evanescence excitation field (100 nm from dorsal membrane) in transfected adipocytes was measured with a Nikon Eclipse-Ti microscope equipped with a CoolSNAP HQ2 camera and laser scanning TIRF capacity. Total GLUT4-GFP signals and […] Alexa Fluoro-350 signals were acquired with wide field imaging to identify double-transfected cells. The ratio of myc-GLUT4 signal in the TIRF zone to the total Epi-GFP signal in wide field was used as a measure of GLUT4 translocation to the cell surface.
Image Analysis and Quantification: TIRF and wide field fluorescence microscopy were performed using a Nikon inverted microscope (Melville, N.Y.) with a cooled charge-coupled device camera. […]

Substance: insulin
- increase in GLUT4 translocation (cell surface myc / total GFP): 3 fold
